Source: patent US5652247A, “Carbostyril derivatives” (Otsuka Pharmaceutical Co., Ltd, priority 1989, dated 1997)

Target: T1, V1 receptor (Rattus norvegicus, UniProt P30560)
T1 construct: rat liver plasma membrane preparations; from tissue; host or cells: rat liver plasma membranes
Assay: V1 receptor binding assay
Conditions: [H]^3-Arg-vasopressin 2×10^-10 M, rat liver plasma membrane, 37° C., 10 minutes, pH 8.0

T1 sequence (P30560 whole entry): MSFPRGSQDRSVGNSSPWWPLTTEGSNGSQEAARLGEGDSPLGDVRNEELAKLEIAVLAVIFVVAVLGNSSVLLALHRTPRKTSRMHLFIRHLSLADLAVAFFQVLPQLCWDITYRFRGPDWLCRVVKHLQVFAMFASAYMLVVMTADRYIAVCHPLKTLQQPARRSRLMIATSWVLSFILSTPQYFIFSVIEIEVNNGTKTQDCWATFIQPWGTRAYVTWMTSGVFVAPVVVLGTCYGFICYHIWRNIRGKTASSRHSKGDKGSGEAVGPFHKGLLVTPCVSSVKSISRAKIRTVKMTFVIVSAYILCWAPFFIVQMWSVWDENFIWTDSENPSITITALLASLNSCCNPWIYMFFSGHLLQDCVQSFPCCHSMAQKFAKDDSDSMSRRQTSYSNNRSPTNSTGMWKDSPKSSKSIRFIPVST

C#CCc1ccc(C(=O)N2CCC(N3C(=O)CCc4ccccc43)CC2)cc1 [Example 96, 1-[1-(4-Propargylbenzoyl)-4-piperidinyl]-3,4-dihydrocarbostyril]
IC50: 600 nM

CN(C)c1ccc(S(=O)(=O)CCCCCOc2ccc(C(=O)N3CCC(N4C(=O)CCc5ccccc54)CC3)cc2)cc1 [Example 290, 1-{1-(4-[5-(4-Dimethylaminophenylsulfonyl)pentyloxy]benzoyl)-4-piperidinyl}-3,4-dihydrocarbostyril]
IC50: 300 nM
